Results reported in PubChem BioAssay AID210 (DTP/NCI, 2004).
“And” between values parts separate entries of the source, which are not always exact repeats. Equal entries are not always repeated. Toxic doses and inconclusive results are not listed.

System: CD2F1 mice, ip Colon 26 adenocarcinoma, median survival T/C
Test: NCI In Vivo Anticancer Drug Screen. Data for tumor model Colon 26 Adenocarcinoma (intraperitoneal) in CD2F1 (CDF1) mice
Details: endpoint: median survival time, higher = longer survival
Experimental: The antitumor activity of compounds was measured in mice bearing transplantable tumors. Survival or tumor size were measured and the results are expressed as the measurement made in the treated group (T) divided by the measurement made in the vehicle treated control group (C). The tumor model used in this assay is Colon 26 Adenocarcinoma (intraperitoneal) in CD2F1 (CDF1) mice

[1] = dose: 50.0 mg/kg/injection, schedule: Q04DX002 (ip), vehicle: Klucel (hydroxypropylcellulose) (HPC)
[2] = dose: 100.0 mg/kg/injection, schedule: Q04DX002 (ip), vehicle: Klucel (hydroxypropylcellulose) (HPC)
[3] = dose: 200.0 mg/kg/injection, schedule: Q04DX002 (ip), vehicle: Klucel (hydroxypropylcellulose) (HPC)
[4] = dose: 400.0 mg/kg/injection, schedule: Q04DX002 (ip), vehicle: Klucel (hydroxypropylcellulose) (HPC)
[5] = dose: 100.0 mg/kg/injection, schedule: Q04DX002 (ip), vehicle: saline
[6] = dose: 400.0 mg/kg/injection, schedule: Q04DX002 (ip), vehicle: saline

For `CC[C@H](CC[C@@H](C)[C@H]1CC[C@H]2[C@@H]3CC=C4C[C@@H](OC(C)=O)CC[C@]4(C)[C@H]3CC[C@]12C)C(C)C`, the T/C (dose: 25.0 mg/kg/injection, schedule: Q04DX002 (ip), vehicle: Klucel (hydroxypropylcellulose) (HPC)) was 88 % of control, the T/C [1] was 92 % of control and the T/C [2] was 102 % of control. For the same molecule, the T/C [3] was 90 % of control and the T/C [4] was 97 % of control.
In the case of `CN(C)C=O`, the T/C [5] is reported as 93 % of control, the T/C [6] is reported as 90 % of control and the T/C (dose: 800.0 mg/kg/injection, schedule: Q04DX002 (ip), vehicle: saline) is reported as 168 % of control. For the same molecule, the T/C (dose: 1600.0 mg/kg/injection, schedule: Q04DX002 (ip), vehicle: saline) was 93 % of control.
`CCOC(=O)CC(SP(=S)(OC)OC)C(=O)OCC` (stereo not drawn) was tested, and the T/C (dose: 25.0 mg/kg/injection, schedule: Q04DX002 (ip), vehicle: saline) was 103 % of control, the T/C (dose: 50.0 mg/kg/injection, schedule: Q04DX002 (ip), vehicle: saline) was 94 % of control and the T/C [5] was 104 % of control. The T/C (dose: 200.0 mg/kg/injection, schedule: Q04DX002 (ip), vehicle: saline) was 90 % of control and the T/C [6] was 91 % of control.
In the case of `CC[C@]1(O)C[C@H]2CN(CCc3c([nH]c4ccccc34)[C@@](C(=O)OC)(c3cc4c(cc3OC)N(C=O)[C@H]3[C@@](O)(C(=O)OC)[C@H](OC(C)=O)[C@]5(CC)C=CCN6CC[C@]43[C@@H]65)C2)C1`, the T/C (dose: 0.95 mg/kg/injection, schedule: Q07DX003 (ip), vehicle: saline) is reported as 112 % of control and 115 % of control, the T/C (dose: 1.4 mg/kg/injection, schedule: Q07DX003 (ip), vehicle: saline) is reported as 120 % of control and 123 % of control and the T/C (dose: 2.1 mg/kg/injection, schedule: Q07DX003 (ip), vehicle: saline) is reported as 105 % of control. The T/C (dose: 3.0 mg/kg/injection, schedule: Q07DX003 (ip), vehicle: saline) was 99 % of control.
With `COC1=CC(=O)N(C(=O)C2CSC(C(CO)NC(=O)c3csc(/C=N/O)n3)=N2)C1` (stereo not drawn) the T/C [1] was 93 % of control, the T/C [2] was 105 % of control and the T/C [3] was 101 % of control. The T/C [4] was 105 % of control.
For `COC(OC(CO)C(O)S(=O)(=O)O)C(O)S(=O)(=O)O` (stereo not drawn), the T/C (dose: 12.5 mg/kg/injection, schedule: Q04DX003 (ip), vehicle: saline) was 97 % of control, the T/C (dose: 25.0 mg/kg/injection, schedule: Q04DX003 (ip), vehicle: saline) was 102 % of control and the T/C (dose: 50.0 mg/kg/injection, schedule: Q04DX003 (ip), vehicle: saline) was 102 % of control. For the same molecule, the T/C (dose: 100.0 mg/kg/injection, schedule: Q04DX003 (ip), vehicle: saline) was 108 % of control, the T/C (dose: 200.0 mg/kg/injection, schedule: Q04DX003 (ip), vehicle: saline) was 109 % of control and the T/C (dose: 400.0 mg/kg/injection, schedule: Q04DX003 (ip), vehicle: saline) was 100 % of control.
For `CO[C@H]1C[C@@H]2CC[C@@H](C)[C@@](O)(O2)C(=O)C(=O)N2CCCC[C@H]2C(=O)O[C@H]([C@H](C)C[C@@H]2CC[C@@H](O)[C@H](OC)C2)CC(=O)[C@H](C)C=C(C)[C@@H](O)[C@@H](OC)C(=O)[C@H](C)C[C@H](C)/C=C/C=C/C=C1C`, the T/C (dose: 12.5 mg/kg/injection, schedule: Q04DX003 (ip), vehicle: saline with Tween-80) was 104 % of control, the T/C (dose: 25.0 mg/kg/injection, schedule: Q04DX003 (ip), vehicle: saline with Tween-80) was 118 % of control and the T/C (dose: 50.0 mg/kg/injection, schedule: Q04DX003 (ip), vehicle: saline with Tween-80) was 116 % of control. The T/C (dose: 100.0 mg/kg/injection, schedule: Q04DX003 (ip), vehicle: saline with Tween-80) was 105 % of control and the T/C (dose: 200.0 mg/kg/injection, schedule: Q04DX003 (ip), vehicle: saline with Tween-80) was 96 % of control.
